# Source: patent US4701406A, “Assay for the detection of epigenetic toxic (non-genotoxic) substances” (priority 1984, dated 1987)
# Like-named read-outs stand apart in the source and are kept apart here.
# Key:
# [1] = system: cytoskeletal elements (microtubules and microfilaments) of Swiss 3T3 cells
# skin = settings: cited from earlier work
# genetic material = settings: presently used assays; cited from earlier work
# [2] = system: cytoskeletal elements (microtubules) of quiescent 3T3 cells
# tubulin = settings: in vitro; cited from earlier work
# [3] = Table I; recognized by U.S. Department of Health and Human Services; cited from earlier work
compound,measurement,setting,value
"O=S(=O)([O-])[O-].[Cd+2] [Cd(II) as CdSO4, CdSO4]",Cytoskeletal Perturbation,"[1]; 2.5 × 10^-5 M, 3.0 hrs, FIG. 1c",positive
"Nc1ccc(N)cc1 [PPD, P--Phenylene-diamine]",skin sensitization,skin; human as well as animal studies,potent skin sensitizers
same,Health Hazardous Activity (potent skin sensitizer),skin; identified by skin patch test,sensitizer
same,identification by genotoxicity / mutagenicity assays,genetic material,consistently failed to be identified
same,Cytoskeletal Perturbation,"[1]; 5.0 × 10^-4 M, 3.5 hrs, FIG. 1h",positive
"[K+].[K+].[O]=[Cr](=[O])([O-])[O][Cr](=[O])(=[O])[O-] [Cr(VI) as K2 Cr2 O7, K2 Cr2 O7]",Cytoskeletal Disruption,"[2]; 1.2 × 10^-3 M, 3 hours, FIG. 2c",positive
same,Cytoskeletal Perturbation,[1],positive
"O=S(=O)([O-])[O-].[Ni+2] [Ni(II) as NiSO4, NiSO4]",Cytoskeletal Disruption,"[2]; 1.5 × 10^-3 M, 3 hours, FIG. 2d",positive
same,Cytoskeletal Perturbation,[1],positive
"O=[N+]([O-])c1ccc(Cl)c([N+](=O)[O-])c1 [CDNB, 1-Chloro-2,4-dinitro-benzene]",Cytoskeletal Disruption,"[2]; 5 × 10^-6 M, 2 hours, FIG. 2b",positive
same,allergic contact dermatitis,skin,severe allergic contact dermatitis
same,identification by genotoxicity / mutagenicity assays,genetic material,consistently failed to be identified
same,Cytoskeletal Perturbation,"[1]; 5.0 × 10^-6 M, 2.0 hrs, FIG. 1g",positive
"O=[N+]([O-])c1ccc(F)c([N+](=O)[O-])c1 [FDNB, fluorodinitrobenzene]",allergic contact dermatitis,skin,severe allergic contact dermatitis
CC(=O)O[C@H]1C(=O)[C@@]2(C)[C@H]([C@H](OC(=O)c3ccccc3)[C@]3(O)C[C@H](OC(=O)[C@H](O)[C@@H](NC(=O)c4ccccc4)c4ccccc4)C(C)=C1C3(C)C)[C@]1(OC(C)=O)CO[C@@H]1C[C@@H]2O [taxol],"effectiveness, taxol introduced prior to vs simultaneously with the epigenetic substances",[2]; prior to or simultaneous treatment,no discernible difference in effectiveness
same,Cytoskeletal Disruption,"[2]; taxol alone, 12 × 10^-6 M, 2 hours, FIG. 2h",negative
same,tubulin polymerization,tubulin,promote tubulin polymerization in vitro
"O=[As][O-].[Na+] [As(III) as NaAsO2, NaAsO2]",Cytoskeletal Perturbation,[1],positive
"O=S(=O)([O-])[O-].[Co+2] [Co(II) as CoSO4, CoSO4]",Health Hazardous Activity (carcinogen / promoter),[3],Carcinogen
same,Cytoskeletal Perturbation,"[1]; 4.0 × 10^-4 M, 17.0 hrs, FIG. 1f",positive
